Tests used:
H460 (lung) = settings: H460 (lung), 4,000 cells/well, treated 72 h, mean ± SD (n = 3)
Experimental: (§1) All cell lines (OVCAR8, A2780, H460, and MDA-MB-231) were cultivated in RPMI or DMEM supplemented with 10% FBS, 1% penicillin/streptomycin, and 1% amphotericin. All cells were grown at 310K in a humidified atmosphere containing 5% CO2.
(§2) Various established human ovarian, lung, and breast cancer cell lines were seeded in 96-well plates (4000 cells/well) and were incubated with RPMI 1640 or DMEM (100 μL) supplemented with 10% FBS, 1% penicillin/streptomycin, and 1% amphotericin for 24 h and at 37° C. They were then treated with AuPhos compounds at increasing concentrations for 72 h from stock solutions following serial dilutions, in which AuPhos stock solutions were prepared in DMSO/media mixture (% v/v=20:80). Thereafter, cellular viability was assessed via the established crystal violet colorimetric assay. In brief, cells were fixed with 50 μL of a 1% glutaraldehyde solution and placed in an incubator (37° C., 5% CO2) for 1 hour. The plates were washed with water by running them under a gentle flow of tap water. The plates were air-dried, and crystal violet reagent was added to each well and allowed to incubate at room temperature for 20 min. The plates were washed with water and dried again. Methanol (200 μL/well) was added to each well, and the measurements of absorbance were subsequently performed using a Biotek Synergy H1 Plate Reader at 570 nm (peak absorbance).

OVCAR8 (ovarian) = settings: OVCAR8 (ovarian), 4,000 cells/well, treated 72 h, mean ± SD (n = 3)
Experimental: as §1, §2

A2780 (ovarian) = settings: A2780 (ovarian), 4,000 cells/well, treated 72 h, mean ± SD (n = 3)
Experimental: as §1, §2

MDA-MB-231 (breast) = assay: Cell viability, crystal violet assay, MDA-MB-231; assay type: cell-based, human; settings: for IC50: MDA-MB-231 (breast), 4,000 cells/well, treated 72 h, mean ± SD (n = 3)
Description: The plates were washed with water and dried again.

4T1 tumor = assay: In vivo comparative experiment of AuPhos-89 and cisplatin, 4T1, IP; parameters: species or system BALB/c mice
Experimental: Mice were implanted with 2,000,000 4T1 cells subcutaneously on their flanks. […] The control group was injected with a PBS solution containing 1.5% DMSO and 12% Kolliphor. Injection and tumor-size/body-weight measurement was performed three days a week.
Mice organs (heart, lung, liver, kidney, spleen, and tumor) were fixed in freshly prepared paraformaldehyde (4% in PBS), the fixation time was 24 hours. And those processed for paraffin sectioning. The organs sections of 5 μm were stained with H&E staining and used for histological examination of the organs and tumor. A total of 5 sections per tissues (spanning the full depth of the organ) were examined and photographed using a Nikon Eclipse 55i microscope. […]

MDA-MB-231 cells = settings: 2 mM for 3 h, FACS
Experimental: MDA-MB-231 cells were seeded at a density of 5×10^5 cells/well in a 6-well clear bottom plate with a final media volume of 2 mL. The cells were allowed to adhere overnight at 37° C. A stock of AuPhos-89 was prepared fresh in DMSO/DMEM (% v/v=20:80) and added to the desired well at a concentration of 1 μM with a final volume of 2.5 mL and incubated for 15 h at 37° C. A stock of H2O2 was prepared in PBS and the cells treated at a final concentration of 2 mM for 3 hours and used as positive control. When ready for analysis, medium was removed and the wells washed with 5 mL of PBS. The cells were trypsinized (1 mL), 5 mL of DMEM were added to each well, and total volume collected and centrifuged to pellet the cells. The cells were resuspended in 2 mL of fresh media, counted, and reconstituted to a concentration of 1×10^5 cells/mL. The cells were centrifuged again, and the pellet suspended in 500 μL of Annexin binding buffer. To each sample was added 5 μl of Annexin V-FITC and 5 μl PI and incubated in the dark at room temperature for 5 minutes. The samples were then subjected to FACS analysis.

Row | Compound | IC50 (H460 (lung)) | IC50 (OVCAR8 (ovarian)) | IC50 (A2780 (ovarian)) | IC50 (MDA-MB-231 (breast)) | IC50 (MDA-MB-231 (breast); Homo sapiens) | less cytotoxicity compared with the AuPhos compounds (Table 1) (MDA-MB-231 (breast); MDA-MB-231) | tumor inhibition compared with the control group (4T1 tumor; AuPhos-89 10 mg kg−1 IP, cisplatin 3 mg kg−1 IP) | tumor volume (4T1 tumor; six treatments, thrice a week, IP, AuPhos-89 10 mg kg−1, cisplatin 3 mg/kg, versus vehicle control) | apoptosis, positive control (MDA-MB-231 cells)
1 | (2-phenoxypyridine)[1,2-Bis(diphenylphosphino) benzene]gold(III) Dichloride [AuPhos-83] | 270 ± 60 nM | 890 ± 140 nM | 220 ± 10 nM | 220 ± 70 nM |  |  |  |  | 
2 | Cl.[Cl][Au-]1([c]2ccccc2Cc2ccccn2)[P+](c2ccccc2)(c2ccccc2)c2ccccc2[P+]1(c1ccccc1)c1ccccc1 [AuPhos-84, (2-benzylpyridine)[1,2-Bis(diphenylphosphino)benzene]gold(III) Dichloride] | 760 ± 150 nM | 1240 ± 140 nM | 250 ± 60 nM | 240 ± 160 nM |  |  |  |  | 
3 | Cl.[Cl][Au-]1([c]2cccc3ccc4cccnc4c23)[P+](c2ccccc2)(c2ccccc2)c2ccccc2[P+]1(c1ccccc1)c1ccccc1 [AuPhos-86, (benzo[h]quinoline)[1,2-Bis(diphenylphosphino)benzene]gold(III) Dichloride] | 340 ± 70 nM | 820 ± 440 nM | 330 ± 40 nM | 290 ± 40 nM |  |  |  |  | 
4 | Cc1ccc(-c2ccccn2)[c]([Au-]2([Cl])[P+](c3ccccc3)(c3ccccc3)c3ccccc3[P+]2(c2ccccc2)c2ccccc2)c1.Cl [AuPhos-87, (2-(p-tolyl)pyridine)[1,2-Bis(diphenylphosphino)benzene]gold(III) Dichloride] | 710 ± 90 nM | 820 ± 760 nM | 180 ± 40 nM | 450 ± 190 nM |  |  |  |  | 
5 | Cl.[Cl][Au-]1([c]2ccccc2Nc2ccccn2)[P+](c2ccccc2)(c2ccccc2)c2ccccc2[P+]1(c1ccccc1)c1ccccc1 [AuPhos-82, (2-anilinopyridine)[1,2-Bis(diphenylphosphino)benzene]gold(III) Dichloride] | 1040 ± 170 nM | 850 ± 60 nM | 340 ± 40 nM | 220 ± 200 nM |  |  |  |  | 
6 | c1ccc(P(c2ccccc2)c2ccccc2P(c2ccccc2)c2ccccc2)cc1 [1,2-Bis(diphenylphosphino)benzene, reference compound] |  |  |  |  | 1370 ± 450 nM | ~6 times |  |  | 
7 | N.N.[Cl][Pt][Cl] [cisplatin, reference compound] |  |  |  |  |  |  | significant tumor inhibition | comparable results to AuPhos-89 treatment | 
8 | Cl.O=C(c1ccccn1)c1cccc[c]1[Au-]1([Cl])[P+](c2ccccc2)(c2ccccc2)c2ccccc2[P+]1(c1ccccc1)c1ccccc1 [AuPhos-85, (2-benzoylpyridine)[1,2-Bis(diphenylphosphino)benzene]gold(I) Dichloride] | 340 ± 70 nM | 640 ± 110 nM | 150 ± 30 nM | 260 ± 60 nM |  |  |  |  | 
9 | OO [hydrogen peroxide, reference compound] |  |  |  |  |  |  |  |  | significant apoptosis
10 | Cl.O=Cc1ccc(-c2ccccn2)[c]([Au-]2([Cl])[P+](c3ccccc3)(c3ccccc3)c3ccccc3[P+]2(c2ccccc2)c2ccccc2)c1 [AuPhos-88, (4-(2-pyridyl)benzaldehyde)[1,2-Bis(diphenylphosphino)benzene]gold(III) Dichloride] | 400 ± 30 nM | 850 ± 70 nM | 270 ± 20 nM | 370 ± 210 nM |  |  |  |  | 

— patent publication US20230357292A1, “MULTI-COORDINATE GOLD-PHOSPHINE COMPOUNDS AND METHOD OF USE” (University of Kentucky Research Foundation, priority 2020, published 2023)
